Columns and labels:
blood vessels in the CAM [1] = assay: chick chorioallantoic membrane assay (CAM), vasculature analysed with NIH ImageJ; type: in vivo, Brown Leghorn chicken embryos; conditions: for effect on branching compared to DMSO control / effect on vascular density (VD) compared to DMSO control / effect on vessel diameter compared to DMSO control / effect on vessel length density (VLD) compared to DMSO control: 24 h after administration
Protocol: (§1) At day 2, the egg was carefully cleaned with isopropanol again and a small opening was carved near its air sac through which approximately 3 mL of albumin was removed. The opening was sealed with medical tape and a larger square opening of approximately 1×1 cm was carved near the center of the egg using a Dremer Stylo+ tool. The egg was further cleaned in order to remove debris and the eggshell membrane was carefully removed using sterilized tweezers. The opening was sealed using clear tape and the eggs were incubated for four more days under the same conditions after disabling the auto-turning mechanism of the incubator.
(§2) The tape covering the opening in the egg was carefully removed and the disc was carefully placed on top of the chorioallantoic membrane (e.g., CAM) using sterilized tweezers, then the opening was resealed, and the eggs were placed again in the incubator.
(§3) The paper disc was carefully removed, and the CAM was photographed. For the Miles assay approximately 100 μl of a 1% w/v solution of Evans Blue dye was injected in the CAM and infiltration of the dye into the blood vessels was analyzed using an Andonstar digital microscope equipped with a 60× magnification lens. If the dye infiltrated the blood vessels the test was considered positive. The photographs were later cropped to include only the CAM and analyzed using the NIH ImageJ software package as follows.
To analyze the extent of branching the blood vessels were carefully traced in order for the ImageJ software to be able to distinguish them for the background. The traced images were opened on the ImageJ software, converted into an 8 bit image and the threshold was adjusted to exclude any possible background signal. This process gave a binary (black and white) map of the vasculature which was then skeletonized (converted into a 1 pixel wide map) and the skeleton was analyzed to determine the number of branches and junction voxels (pixels connected to more than 2 other pixels, i.e. pixels in which the map divides).
To analyze the vascular length density and vascular density the cropped image was opened on the ImageJ software, and the Mexican Hat filter plugin was applied using a radius of 5.0. After this, the image was made binary and the Vascular Density function of the Vessel Analysis plugin was used to determine both parameters after carefully tracing the image so that only the CAM area was included on the calculation.
To analyze the vessel the cropped image was opened on the ImageJ software, and the Mexican Hat filter plugin was applied using a radius of 5.0.

chicken embryos = type: in vivo, Brown Leghorn chicken embryos; design: embryo survival: unit of the concentration uncertain; conditions: for embryo survival: 40 (unit uncertain) dose; for embryo survival / embryos that survived: 24 h; for embryos that survived: 40 μM dose
Protocol: as §1, §2
The protocol included DMSO as a negative control and Razuprotafib as a positive control. The protocol also included the heptapeptide NLLMAAS as a negative control, which is an orthosteric antagonist of ANG-1.

[2] = test system: chicken embryos exposed to CoCl2; assay: rescue of embryos administered a 100-fold lethal dose of hypoxia-inducing CoCl2; type: in vivo; conditions: CoCl2 1 M; 2.4 g/kg on Day 6
blood vessels in the CAM [3] = assay: Miles assay (Evans Blue) / vascular permeability in the CAM; design: species or system Brown Leghorn chicken embryos; conditions: in vivo
Protocol: as §3, with “After 24 hours, the tape was removed, and the opening was further expanded until all the possible area of the CAM was exposed. The paper” for “The paper”

[4] = single dose 40 μM (0.91 mg/kg) on Day 6, 24 h post dose

COC(=O)N[C@@H](Cc1ccccc1)C(=O)N[C@@H](Cc1ccc(NS(=O)(=O)O)cc1)c1csc(-c2cccs2)n1 [Razuprotafib]
effect on branching compared to DMSO control (blood vessels in the CAM [1]; 40 μM): no changes were observed | effect on vascular density (VD) compared to DMSO control (blood vessels in the CAM [1]; 40 μM): no changes were observed | effect on vessel diameter compared to DMSO control (blood vessels in the CAM [1]; 40 μM): no changes were observed | effect on vessel length density (VLD) compared to DMSO control (blood vessels in the CAM [1]; 40 μM): no changes were observed | embryo survival (chicken embryos): almost all embryos

NLLMAAS [heptapeptide NLLMAAS, an orthosteric antagonist of ANG-1 (antiangiogenic), negative control]
effect on branching compared to DMSO control (blood vessels in the CAM [1]; 40 mM (1075 mg/Kg)): did not have any effects | effect on vascular density (VD) compared to DMSO control (blood vessels in the CAM [1]; 40 mM (1075 mg/Kg)): did not have any effects | effect on vessel diameter compared to DMSO control (blood vessels in the CAM [1]; 40 mM (1075 mg/Kg)): did not have any effects | effect on vessel length density (VLD) compared to DMSO control (blood vessels in the CAM [1]; 40 mM (1075 mg/Kg)): did not have any effects

CCOC(=O)C1=C(COCCN)NC(C)=C(C(=O)OC)C1c1ccccc1Cl (centres unmarked) [amlodipine]
embryos that survived (chicken embryos): Two out of three

COC(=O)[C@H](Cn1cncn1)NC(=O)[C@H](Cn1nnnc1C)NC(=O)[C@H](Cn1nnc2ccccc21)NC(=O)C(F)(F)F [Compound 1, methyl (S)-2-((S)-2-((S)-3-(1H-benzo[d][1,2,3]triazol-1-yl)-2-(2,2,2-trifluoroacetamido)propanamido)-3-(5-methyl-1H-tetrazol-1-yl)propanamido)-3-(1H-1,2,4-triazol-1-yl)propanoate]
aberrant angiogenesis or vascular remodeling (vessel density/branching mapping) (blood vessels in the CAM [1]; 40 μM): did not induce | time for which activity comparable to FDA approved vasodilators at 10 minutes was maintained (blood vessels in the CAM [1]; CAM): 24 h | decrease in vessel length density (VLD) compared with DMSO control (blood vessels in the CAM [1]; [4]): 17% | increase in vessel diameter compared with DMSO control (blood vessels in the CAM [1]; [4]): 124% | decrease in vessel length density (VLD) compared with DMSO control (blood vessels in the CAM [1]; single dose 40 μM (0.91 mg/kg) on Day 6, 24 h post dose, listed as Compound 2): 17% | embryos rescued from a 100-fold lethal dose of CoCl2 [2]: 25% | integrity of vessel cell walls (Miles assay) (blood vessels in the CAM [3]): did not weaken | vascular permeability (blood vessels in the CAM [3]): did not increase permeability | embryo survival (chicken embryos): almost all embryos | indications of hazardous tumor growth or teratogenic effects (chicken embryos; single (Day 6) dosing at 40 μM): no indications | mortality rates (chicken embryos; single (Day 6) dosing at 40 μM): not statistically significant

O=[N+]([O-])O[C@@H]1CO[C@H]2[C@@H]1OC[C@@H]2O [isosorbide, isosorbide mononitrate]
effect on vascular density (VD) compared to DMSO control (blood vessels in the CAM [1]; 40 μM): did not observe effects | effect on vessel diameter compared to DMSO control (blood vessels in the CAM [1]; 40 μM): did not observe effects | effect on vessel length density (VLD) compared to DMSO control (blood vessels in the CAM [1]; 40 μM): did not observe effects | embryos that survived (chicken embryos): Two out of three

B1: ANG-1 protein: ANG-1 protein (Gibco) (protein, UniProt Q15389 16-498, looked up)
Angiopoietin-1: HIGCSNQRRSPENSGRRYNRIQHGQCAYTFILPEHDGNCRESTTDQYNTNALQRDAPHVEPDFSSQKLQHLEHVMENYTQWLQKLENYIVENMKSEMAQIQQNAVQNHTATMLEIGTSLLSQTAEQTRKLTDVETQVLNQTSRLEIQLLENSLSTYKLEKQLLQQTNEILKIHEKNSLLEHKILEMEGKHKEELDTLKEEKENLQGLVTRQTYIIQELEKQLNRATTNNSVLQKQQLELMDTVHNLVNLCTKEGVLLKGGKREEEKPFRDCADVYQAGFNKSGIYTIYINNMPEPKKVFCNMDVNGGGWTVIQHREDGSLDFQRGWKEYKMGFGNPSGEYWLGNEFIFAITSQRQYMLRIELMDWEGNRAYSQYDRFHIGNEKQNYRLYLKGHTGTAGKQSSLILHGADFSTKDADNDNCMCKCALMLTGGWWFDACGPSNLNGMFYTAGQNHGKLNGIKWHYFKGPSYSLRSTTMMIRPLDF
effects on CAM vasculature (vessel diameter, vessel length density) compared to DMSO controls (blood vessels in the CAM [1]; 0.75 mg/Kg (proteins 18.87 μM, antibody 1 mg/mL)): did not produce any effects significantly different
